Test results from the supplement of paper PMC10307832.

Legend:
Assay in all cases: relative viability (nuclei count vs DMSO), 5 days (fraction); higher = more cells survive
TPCA-1 + Olaparib = compound: C1=CC(=CC=C1C2=CC(=C(S2)NC(=O)N)C(=O)N)F [TPCA-1] + O=C(c1cc(Cc2n[nH]c(=O)c3ccccc23)ccc1F)N1CCN(C(=O)C2CC2)CC1 [Olaparib] (partner 8 µM)
Procedure, shortened: (§1)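 A single step with final 0.05% Triton X-100, 1% formaldehyde and 1 ug/ml Hoechst fixed the cells and stained nuclei 5 days after treatment. Lung cancer cell lines in 1536-well plates had been treated by pin tool the day after seeding with one drug alone or a fixed anchor-drug dose plus five library-drug doses (not always all listed) in √10 steps, and nuclei were counted on 4× images. Relative viability is the ratio of nuclei in treated wells to nuclei in vehicle wells, taken as the median of duplicate plates.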

[1] = compound: C[C@]12O[C@H](C[C@]1(O)CO)n1c3ccccc3c3c4c(c5c6ccccc6n2c5c31)CNC4=O [Lestaurtinib] + C[C@@H](Oc1cc(-c2cnn(C3CCNCC3)c2)cnc1N)c1c(Cl)ccc(F)c1Cl [Crizotinib] (partner 1 µM)
Procedure, shortened: as §1

[2] = compound: C[C@]12O[C@H](C[C@]1(O)CO)n1c3ccccc3c3c4c(c5c6ccccc6n2c5c31)CNC4=O [Lestaurtinib] + C[C@]1(O)C[C@@H](c2nc(-c3ccc4ccc(-c5ccccc5)nc4c3)c3c(N)nccn32)C1 [Linsitinib] (partner 1 µM)
Procedure, shortened: as §1

[3] = compound: C1/C(=C\C2=CC=CS2)/C(=O)/C(=C/C3=CC=CS3)/C1 + Nc1ncn([C@H]2C[C@H](O)[C@@H](CO)O2)c(=O)n1 [Decitabine] (partner 2 µM)
Procedure, shortened: as §1

Cell Line | relative viability (TPCA-1 + Olaparib; first compound 0.04 µM) | relative viability (TPCA-1 + Olaparib; first compound 0.1265 µM) | relative viability (TPCA-1 + Olaparib; first compound 0.4 µM) | relative viability (TPCA-1 + Olaparib; first compound 1.265 µM) | relative viability (TPCA-1 + Olaparib; first compound 4 µM) | relative viability ([1]; first compound 0.005 µM) | relative viability ([1]; first compound 0.01581 µM) | relative viability ([1]; first compound 0.05 µM) | relative viability ([1]; first compound 0.1581 µM) | relative viability ([1]; first compound 0.5 µM) | relative viability ([2]; first compound 0.005 µM) | relative viability ([2]; first compound 0.01581 µM) | relative viability ([2]; first compound 0.05 µM) | relative viability ([2]; first compound 0.1581 µM) | relative viability ([2]; first compound 0.5 µM) | relative viability ([3]; first compound 0.2 µM) | relative viability ([3]; first compound 0.6325 µM) | relative viability ([3]; first compound 2 µM) | relative viability ([3]; first compound 6.325 µM) | relative viability ([3]; first compound 20 µM)
NCI-H838 | 0.867 | 0.718 | 0.826 | 0.557 | 0.406 | 0.78 | 0.803 | 0.71 | 0.465 | 0.158 | 1.04 | 1.01 | 0.759 | 0.507 | 0.146 | 0.42 | 0.473 | 0.468 | 0.448 | 0.449
NCI-H1355 | 0.8 | 0.633 | 0.796 | 0.694 | 0.396 | 1.29 | 1.09 | 1.01 | 0.86 | 0.549 | 0.795 | 0.838 | 0.546 | 0.451 | 0.302 | 0.369 | 0.388 | 0.319 | 0.304 | 0.325
NCI-H1437 | 0.665 | 0.637 | 0.611 | 0.591 | 0.618 | 0.863 | 0.897 | 0.906 | 0.887 | 0.674 | 1.02 | 1.24 | 0.739 | 0.775 | 0.302 | 0.547 | 0.521 | 0.508 | 0.518 | 0.612
NCI-H1651 | 0.192 | 0.177 | 0.185 | 0.171 | 0.134 | 0.897 | 0.997 | 0.837 | 0.858 | 0.551 | 0.985 | 1.06 | 0.969 | 0.695 | 0.438 | 0.616 | 0.646 | 0.868 | 0.357 | 0.587
NCI-H1666 | 0.767 | 0.673 | 0.71 | 0.757 | 0.768 | 1.04 | 1.38 | 1.39 | 0.96 | 0.409 | 0.926 | 1.04 | 0.847 | 0.475 | 0.501 | 0.697 | 0.732 | 0.751 | 0.636 | 0.736
NCI-H1734 | 0.648 | 0.559 | 0.692 | 0.561 | 0.463 | 0.741 | 0.649 | 0.538 | 0.424 | 0.205 | 0.95 | 0.849 | 0.477 | 0.545 | 0.342 | 0.582 | 0.427 | 0.523 | 0.403 | 0.486
NCI-H1755 | 0.778 | 0.912 | 0.877 | 0.853 | 0.672 | 0.865 | 0.645 | 0.724 | 0.438 | 0.268 | 1.02 | 1.05 | 0.776 | 0.429 | 0.215 | 0.74 | 0.706 | 0.743 | 0.676 | 0.706
NCI-H1792 | 0.432 | 0.281 | 0.382 | 0.352 | 0.202 | 0.901 | 1.18 | 0.49 | 0.799 | 0.476 | 0.757 | 0.56 | 0.386 | 0.243 | 0.144 | 0.642 | 0.519 | 0.561 | 0.495 | 0.496
NCI-H1915 | 0.28 | 0.266 | 0.26 | 0.274 | 0.219 | 0.914 | 1.1 | 0.816 | 0.848 | 0.357 | 1.21 | 1.09 | 1.11 | 0.797 | 0.565 | 0.261 | 0.279 | 0.246 | 0.232 | 0.268
NCI-H1944 | 0.482 | 0.424 | 0.436 | 0.425 | 0.336 | 1.13 | 1.28 | 0.745 | 0.695 | 0.362 | 1.14 | 1.14 | 0.717 | 0.555 | 0.634 | 0.423 | 0.427 | 0.439 | – | 0.392
NCI-H1975 | 0.843 | 0.72 | 0.806 | 0.735 | 0.6 | 0.943 | 0.988 | 0.707 | 0.867 | 0.586 | 1.09 | 0.967 | 0.717 | 0.537 | 0.302 | 0.404 | 0.356 | 0.324 | 0.365 | 0.385
NCI-H1993 | 1.23 | 1.03 | 0.958 | 1.07 | 0.99 | 0.936 | 0.971 | 0.819 | 0.635 | 0.548 | 0.702 | 0.673 | 0.713 | 0.698 | 0.573 | 0.557 | 0.558 | 0.675 | 0.499 | 0.432
NCI-H2009 | 0.697 | 0.733 | 0.626 | 0.753 | 0.817 | 1.02 | 1.09 | 1 | 0.637 | 0.454 | 1.25 | 1.23 | 1.09 | 1.01 | 0.581 | 0.356 | 0.381 | 0.359 | – | 0.347
NCI-H2023 | 0.633 | 0.445 | 0.581 | 0.516 | 0.411 | 0.635 | 0.619 | 0.723 | 0.654 | 0.113 | 0.653 | 0.709 | 0.547 | 0.369 | 0.208 | 0.247 | 0.234 | 0.228 | 0.21 | 0.236
NCI-H2085 | – | 0.74 | 0.738 | 0.839 | 0.683 | 0.904 | 0.856 | 0.748 | 0.884 | 0.692 | 0.952 | 1.01 | 1.04 | 0.901 | 0.819 | 0.56 | 0.544 | 0.597 | 0.498 | 0.508
NCI-H2087 | 0.711 | 0.588 | 0.541 | 0.546 | 0.364 | 1.07 | 0.789 | 1.04 | 0.746 | 0.253 | 1 | 0.923 | 0.709 | 0.648 | 0.275 | 0.251 | 0.286 | 0.36 | 0.305 | 0.224
